Source: paper PMC9695642, “Conservation of Importin α Function in Apicomplexans: Ivermectin and GW5074 Target Plasmodium falciparum Importin α and Inhibit Parasite Growth in Culture” (International Journal of Molecular Sciences, 2022)
Values joined by “and” are separate entries in the source; they are usually repeats but may differ in a detail not shown here. Equal entries are not always repeated. Where two headings read alike, the source gives them in different places.

How the values were obtained:
P. falciparum 3D7 strain = test: P. falciparum growth inhibition, HRP2-based sandwich ELISA; assay type: cell-based, Plasmodium falciparum
From the text: To test the potential antimalarial action of GW5074, we compared the activity of GW5074 to ivermectin against the asexual stages of P. falciparum parasites, using an established HRP2-based (histidine-rich protein 2) ELISA [38, 39, 40]. The assay uses a sandwich ELISA to measure HRP2 levels as an indicator of parasite growth; the clinically prescribed drug dihydroartemisinin (DHA) was used as a positive control.
Figure 6 Ivermectin and GW5074 inhibit P. falciparum parasites in culture at low µM concentrations. P. falciparum cultures (0.25% parasitemia) were treated with increasing concentrations of the indicated compounds for 72 h, after which the HRP2-based sandwich ELISA was used to measure the HRP2 levels, determined by optical density. The results shown are from a single typical experiment performed in duplicate (SD shown), representative of a series of three independent experiments (see Table 5 for pooled data).
P. falciparum 3D7 strain was cultured and maintained in human red blood cells (RBCs) using RPMI (Roswell Park Memorial Institute) 1640 medium supplemented with 0.5% Albumax (GibcoTM, Waltham, MA, USA), 50 mg/L hypoxanthine (Sigma-Aldrich, St. Louis, MO, USA), 2 g/L D-glucose (Sigma-Aldrich, St. Louis, MO, USA), 2 g/L sodium bicarbonate (Sigma-Aldrich, St. Louis, MO, USA), and 56 mg/L of gentamicin (Abbott, Chicago, IL, USA) at 37 °C in 5% CO2 in a humidified incubator, according to the standard procedures. Cultures presynchronised using 5% D-sorbitol (Sigma-Aldrich, St. Louis, MO, USA) to obtain predominantly the ring stage of the P. falciparum life cycle were used for the growth assays, as previously. DHA (a gift from IPCA Laboratories, Mumbai, India) was used as a control. Growth assays in the absence and presence of inhibitors were performed using the HRP2 sandwich horseradish peroxidase-linked immunosorbent assay that measures HRP2 levels as an indicator of growth.

TgIMPα:MmIMPβ1 = TgIMPα:MmIMPβ1 (Toxoplasma gondii, UniProt A0A125YID0); test: AlphaScreen inhibition of TgIMPα binding to MmIMPβ1
From the text: (§1) As indicated, both ivermectin and GW5074 have been previously shown to inhibit interaction between mammalian IMPα and IMPβ1 [24, 32]. We tested their activity towards apicomplexan IMPα (Figure 4; Table 4). As previously observed, binding of MmIMPα:MmIMPβ1 was inhibited strongly by both agents, with IC50 values of c. […] Clearly, ivermectin and GW5074 are able to act on apicomplexan IMPα in analogous fashion to MmIMPα in terms of the ability to bind to IMPβ1, the results further underlining the structural and functional conservation of IMPα from apicomplexans to mammalian systems.
(§2) Figure 4 Ivermectin and GW5074 inhibit IMPα–IMPβ interaction. AlphaScreen technology was used to determine the IC50 for inhibition by ivermectin and GW5074-binding of IMPβ (30 nM) to IMPαs (30 nM). Data represent the mean ± SEM for quadruplet wells from a single experiment, from a series of three independent experiments (see Table 4 for pooled data).
(§3) PfIMPα, TgIMPα, MmIMPα, ΔIBBMmIMPα, and MmIMPβ1 GST fusion proteins were expressed and purified essentially as previously. His-tagged T-ag-NLS-GFP, TGS1-NLS-GFP, GCN5-NLS-GFP, PfIMPα, and TgIMPα proteins were all purified using Ni^2+-affinity chromatography, as previously. Biotinylation of GST-tagged proteins was carried out using the Sulfo-NHS-Biotin reagent (Pierce, Rockford, IL, USA), as described previously. The AlphaScreen binding assay was performed as previously.

PfIMPα:MmIMPβ1 = PfIMPα:MmIMPβ1 (Plasmodium falciparum, UniProt Q8IAW0); test: AlphaScreen inhibition of PfIMPα binding to MmIMPβ1
From the text: as §1, §2, §3

PfIMPα [1] = target: T1, PfIMPα (Plasmodium falciparum, UniProt Q8IAW0); test: Far-UV CD spectroscopy, α-helical content of PfIMPα with compound; assay type: binding; settings: PfIMPα alone c. 63 % α-helical
Experimental: Previous analysis for MmIMPα using several biophysical approaches had established that the mechanism by which both ivermectin and GW5074 have an impact on NLS and IMPβ1 binding by MmIMPα is by direct binding to the ARM repeat domain of IMPα to perturb structural conformation. […] 63 % α-helical, compared to c. 70 % for MmIMPα (Figure 5b).
CD spectra were also analysed in the presence of increasing concentrations of ivermectin and GW5074, with both agents having a marked impact on the structure, especially at high concentrations (Figure 5a,b), consistent with the idea that both bind to the proteins directly to perturb structure. PfIMPα appeared to be particularly susceptible to both agents, with 30 µM GW5074 reducing α-helicity by more than a half (Figure 5a,b) to a residual value of 30%, which fell below 10% in the presence of 80 µM GW5074. […] 20% at 80 µM. The results, overall, indicate that both ivermectin and GW5074 can bind to and destabilise the structure of both PfIMPα and TgIMPα in analogous fashion to their known effects on mammalian IMPα, further underlining the conservation of structure and function between apicomplexan and mammalian IMPαs.
Figure 5 CD spectra for apicomplexan and mammalian IMPαs in the absence and presence of ivermectin and GW5074. CD spectra were collected for PfIMPα, TgIMPα, and MmIMPα in the absence or presence of 30 μM and 80 μM ivermectin and GW5074. (a) Spectra shown are from a single experiment, representative of two independent experiments for 30 μM concentration of ivermectin and GW5074. Note: θ is ellipticity. […]
CD spectroscopy was used to study the binding of ivermectin and GW5074 to PfIMPα, TgIMPα and MmIMPα, as previously described. CD spectra of the proteins at 0.1 mg/mL concentration were recorded from 200–260 nm using Jasco CD spectrometer (Jasco, Portland, OR, USA). CD spectra of the IMPαs were also measured in the presence of 30 µM and 80 µM concentrations of the ivermectin and GW5074 compounds. Percentage α-helix content was calculated from the ellipticity at 222 nm as described in [51]. […]

MmΔIBBIMPα = target: T2, MmΔIBBIMPα (Mus musculus, UniProt P52293); test: AlphaScreen inhibition of MmΔIBBIMPα binding to T-ag-NLS-GFP
T2 construct: GST; made in house
From the text: (§4) Inhibitors of mammalian IMPα function are of key interest as anti-infectious agents. One of the first described is the small molecule macrocyclic lactone ivermectin, produced by the bacterium Streptomyces avermitilis, that is approved by the US Food and Drug Administration for parasitic infections. […] Chemically distinct from ivermectin, GW5074 (3-(3,5-dibromo-4-hydroxybenzyliden)-5-iodo-1,3-dihydroindol-2-one) binds to mammalian IMPα with analogous structural effects on IMPα and inhibitory effects on NLS recognition/IMPβ1 binding by IMPα [24]. […] We set out to test the activity of these inhibitors with respect to NLS binding by PfIMPα and TgIMPα, with NLS binding by MmIMPα analysed in parallel (Figure 3; Table 3). As expected, ivermectin and GW5074 inhibited MmΔIBBIMPα-SV40 T-ag with IC50 values of 5–6 µM, consistent with published data. […] The results clearly indicate that chemical inhibitors known to target mammalian IMPα can inhibit apicomplexan IMPα, underlining the structural and functional conservation of IMPα from apicomplexans to mammalian systems.
(§5) Figure 3 Ivermectin and GW5074 inhibit IMPα-NLS interaction at low micromolar concentration. AlphaScreen technology was used to determine the IC50 for inhibition by ivermectin and GW5074 binding of IMPαs (5 nM) to NLS (30 nM). Data represent the mean ± SEM for quadruplet wells from a single experiment, from a series of 3 independent experiments (see Table 3 for pooled data).
as §3

PfIMPα [2] = target: T1, PfIMPα; test: AlphaScreen inhibition of PfIMPα binding to TGS1-NLS-GFP
From the text: as §4, §5, §3

MmIMPα:MmIMPβ1 = target: T3, MmIMPα:MmIMPβ1 (Mus musculus, UniProt P52293); test: AlphaScreen inhibition of MmIMPα binding to MmIMPβ1
T3 construct: His; made in house
From the text: as §1, §2, §3

TgIMPα = TgIMPα (Toxoplasma gondii, UniProt A0A125YID0); test: AlphaScreen inhibition of TgIMPα binding to T-ag-NLS-GFP
From the text: as §4, §5, §3

[3] = Plasmodium falciparum, 3D7, 72 h, 72 h, single typical experiment in duplicate, read-out: IC50, P. falciparum growth (Figure 6)
[4] = Plasmodium falciparum, 3D7, 72 h, asexual stages, 72 h, pooled mean ± SD (n = 3), read-out: IC50, inhibition of growth of P. falciparum parasites in culture
[5] = AlphaScreen, IMPβ 30 nM, IMPα 30 nM, pooled mean ± SEM (n = 3), read-out: IC50, inhibition of TgIMPα:MmIMPβ1 binding
[6] = single experiment of a series of three, read-out: IC50, TgIMPα:MmIMPβ1 (Figure 4)
[7] = AlphaScreen, IMPβ 30 nM, IMPα 30 nM, pooled mean ± SEM (n = 3), read-out: IC50, inhibition of PfIMPα:MmIMPβ1 binding
[8] = single experiment of a series of three, read-out: IC50, PfIMPα:MmIMPβ1 (Figure 4)
[9] = AlphaScreen, IMPα 5 nM, NLS 30 nM, pooled mean ± SEM (n = 3), read-out: IC50, inhibition of ΔIBBmIMPα:SV40 T-ag NLS binding
[10] = single experiment of a series of 3, read-out: IC50, MmΔIBBIMPα:T-ag-NLS-GFP (Figure 3)
[11] = AlphaScreen, IMPα 5 nM, NLS 30 nM, pooled mean ± SEM (n = 3), read-out: IC50, inhibition of PfIMPα:TGS1 NLS binding
[12] = single experiment of a series of 3, read-out: IC50, PfIMPα:TGS1-NLS-GFP (Figure 3)
[13] = AlphaScreen, IMPβ 30 nM, IMPα 30 nM, pooled mean ± SEM (n = 3), read-out: IC50, inhibition of MmIMPα:MmIMPβ1 binding
[14] = single experiment of a series of three, read-out: IC50, MmIMPα:MmIMPβ1 (Figure 4)
[15] = asexual stages, 72 h, pooled mean ± SD (n = 3), read-out: IC50, inhibition of growth of P. falciparum parasites in culture
[16] = AlphaScreen, IMPα 5 nM, NLS 30 nM, pooled mean ± SEM (n = 3), read-out: IC50, inhibition of TgIMPα:SV40 T-ag NLS binding
[17] = single experiment of a series of 3, read-out: IC50, TgIMPα:T-ag-NLS-GFP (Figure 3)

Row | Compound | IC50 (P. falciparum 3D7 strain; [3]) [µM] | IC50 (P. falciparum 3D7 strain; [4]) [µM] | IC50 (TgIMPα:MmIMPβ1; [5]) [µM] | IC50 (TgIMPα:MmIMPβ1; [6]) [µM] | IC50 (PfIMPα:MmIMPβ1; [7]) [µM] | IC50 (PfIMPα:MmIMPβ1; [8]) [µM] | residual α-helicity of PfIMPα (PfIMPα [1]; 80 µM compound) | IC50 (MmΔIBBIMPα; [9]) [µM] | IC50 (MmΔIBBIMPα; [10]) [µM] | IC50 (PfIMPα [2]; [11]) [µM] | IC50 (PfIMPα [2]; [12]) [µM] | IC50 (MmIMPα:MmIMPβ1; [13]) | IC50 (MmIMPα:MmIMPβ1; [14]) [µM] | IC50 (P. falciparum 3D7 strain; [15]) [µM] | IC50 (TgIMPα; [16]) [µM] | IC50 (TgIMPα; [17]) [µM] | other results
1 | C[C@H]1[C@@H](O)O[C@@H]2O[C@@]3(C)CC[C@H]4[C@H](C)CC[C@@H]1[C@@]24OO3 [DHA, dihydroartemisinin] | 0.0007 | 0.001 ± 0.0005 | – | – | – | – | – | – | – | – | – | – | – | – | – | – | IC50 (P. falciparum 3D7 strain; Plasmodium falciparum, 3D7, asexual stages, approximate value, read-out: IC50, P. falciparum growth): ~0.001 µM
2 | O=C1Nc2ccc(I)cc2C1=Cc1cc(Br)c(O)c(Br)c1 [GW5074, 3-(3,5-dibromo-4-hydroxybenzyliden)-5-iodo-1,3-dihydroindol-2-one] | 6.5 | ~6 | 11 ± 1.5 | 13 | 41 ± 1.5 | 39 | below 10% | 4.9 ± 1.4 | 2.2 | 6.5 ± 0.4 | 6 | ~22 µM and 22 µM | 23 | 5.5 ± 0.9 | 7.7 ± 1.9 | 5.4 | residual α-helicity of PfIMPα (PfIMPα [1]; 30 µM compound): 30%
3 | ivermectin | – | – | 6.9 ± 1.2 | 5.4 | 1.9 ± 0.2 | 1.5 | ~20% | 6.2 ± 0.2 | 6.3 | 5 ± 1.3 | 2.4 | 3.1 ± 0.5 µM | 3.9 | 0.7 ± 0.1 | 4.9 ± 0.2 | 5.2 | IC50 (TgIMPα:MmIMPβ1; AlphaScreen, IMPβ 30 nM, IMPα 30 nM, pooled mean ± SEM (n = 3), listed as ivermectin, read-out: IC50, inhibition of TgIMPα:MmIMPβ1 binding): 2 to 7 µM; IC50 (PfIMPα:MmIMPβ1; AlphaScreen, IMPβ 30 nM, IMPα 30 nM, pooled mean ± SEM (n = 3), listed as ivermectin, read-out: IC50, inhibition of PfIMPα:MmIMPβ1 binding): 2 to 7 µM; IC50 (MmΔIBBIMPα; AlphaScreen, IMPα 5 nM, NLS 30 nM, pooled mean ± SEM (n = 3), listed as ivermectin, read-out: IC50, inhibition of ΔIBBmIMPα:SV40 T-ag NLS binding): 5 to 6 µM; IC50 (MmIMPα:MmIMPβ1; AlphaScreen, IMPβ 30 nM, IMPα 30 nM, pooled mean ± SEM (n = 3), listed as ivermectin, read-out: IC50, inhibition of MmIMPα:MmIMPβ1 binding): ~3 µM; IC50 (P. falciparum 3D7 strain; 72 h, single typical experiment in duplicate, read-out: IC50, P. falciparum growth (Figure 6)): 1 µM; IC50 (P. falciparum 3D7 strain; asexual stages, 72 h, pooled mean ± SD (n = 3), listed as ivermectin, read-out: IC50, inhibition of growth of P. falciparum parasites in culture): ~1 µM; IC50 (TgIMPα; AlphaScreen, IMPα 5 nM, NLS 30 nM, pooled mean ± SEM (n = 3), listed as ivermectin, read-out: IC50, inhibition of TgIMPα:SV40 T-ag NLS binding): 5 µM
